Test results published in patent US7465824B2, “Process for the production of high purity aromatic carboxylic acids using a benzoic acid and water solvent for oxidation and purification” (BP Corporation North America Inc., priority 2007, dated 2008).

Assay: Solubility of TA in a solvent containing 50% benzoic acid and 50% water at various temperatures
Format: physicochemical
Details: solvent 50% benzoic acid and 50% water
Protocol: The solubility of TA in a solvent containing 50% benzoic acid and 50% water was determined at various temperatures and is shown below in Table 1.

SMILES: O=C(O)c1ccc(C(=O)O)cc1 [TA, terephthalic acid]
- solubility of TA given in Example 1 (at 455 °F): 10.9%
- TA Solubility (Temp 397 °F): 5.04 g TA/100 g Solution
- TA Solubility (Temp 436 °F): 8.58 g TA/100 g Solution
- TA Solubility (Temp 446 °F): 9.59 g TA/100 g Solution
- TA Solubility (Temp 451 °F): 9.77 g TA/100 g Solution
- TA Solubility (Temp 455 °F): 10.91 g TA/100 g Solution
- TA Solubility (Temp 477 °F): 13.49 g TA/100 g Solution
- TA Solubility (Temp 505 °F): 18.71 g TA/100 g Solution
